Here are results for 34 compounds from patent publication US6693123B2 (University of Pittsburgh, priority 1995, dated 2004).

Each structure is given as a SMILES string. Where a name gives a salt, the structure may show the parent alone. Bounds are passed on as bounds.

The first assay addresses T1, Rat brain protein farnesyltransferase (Rattus norvegicus, UniProt Q02293+Q04631).
T1 construct: The enzyme is purified according to Reiss, Y., et al., Cell, 62: 81-88 (1990), utilizing steps one through three; from tissue; host or cells: rat brain
Description: In vitro inhibition of protein farnesyltransferase, Amersham scintillation proximity assay with biotin-K Ras B fragment. It is filed as biochemical. The following applies: Inhibition of farnesyltransferase; compound at 0.01 μM (Table 6, values marked **); read-out: % inhibition at 0.01 μM. The source says:
The ability of the compounds of the invention to inhibit protein farnesyltransferase or protein geranylgeranyltransferase can be measured according to the method of Moores, et al., J. Biol. Chem. 266: 14603 (1991) or the method of Vogt, et al., J. Biol. Chem. 270:660-664 (1995). In addition, procedures for determination of the inhibition of farnesylation of the oncogene protein Ras are described by Goldstein, et al., J. Biol. Chem., 266:15575-15578 (1991) and by Singh in U.S. Pat. No. 5,245,061.
In addition, in vitro inhibition of protein farnesyltransferase may be measured by the following procedure. Rat brain protein farnesyltransferase activity is measured using an Amersham Life Science commercial scintillation proximity assay kit and substituting a biotin-K Ras B fragment (biotin-[…]Ue-Met-CO2H), 0.1 mM final concentration, for the biotin-lamin substrate provided by Amersham. The enzyme is purified according to Reiss, Y., et al., Cell, 62: 81-88 (1990), utilizing steps one through three. […]
The % inhibition of protein farnesyltransferase was determined for representative compounds of the invention.
Usually inhibition stands for the change of the read-out against control, counted positive when it falls. As for `CSCC[C@H](NC(=O)c1ccc(C=Cc2cnccc2OCc2cc(F)cc(F)c2)cc1-c1ccccc1C)C(=O)O` [Example 1363, N-[4-(2-(4-(3,5-Difluorobenzyl)oxypyridin-3-yl)ethenyl)-2-(2-methylphenyl)benzoyl]methionine Sodium Salt], the inhibition at 0.01 µM came out at 88%.

Still in this assay, the particulars now being: Inhibition of farnesyltransferase; compound at 0.1 μM (Table 6, values marked *); read-out: % inhibition at 0.1 μM.
As for `COc1ccncc1C=Cc1ccc(C(=O)N[C@@H](CCSC)C(=O)O)c(-c2ccccc2C)c1` [Example 1361, N-[4-(2-(4-Methoxypyridin-3-yl)ethenyl)-2-(2-methylphenyl)benzoyl]methionine Sodium Salt], the inhibition at 0.1 µM worked out at 96%.

Still in this assay, the particulars now being: Inhibition of farnesyltransferase; compound at 1 × 10^−5 M (Table 1).
`CSCC[C@H](NC(=O)c1ccc(NCc2nc[nH]c2C)cc1-c1ccccc1)C(=O)O` [Example 383, 4-[N-(5-Methyl-1-H-imidazole-4-yl)-methylene-(amino-2-phenylbenzol)]methionine]: the inhibition at 10 µM was > 50%.

With `CSCC[C@H](NC(=O)c1ccc(NC(=O)c2cccnc2)cc1-c1ccccc1)C(=O)O` [Example 200, [4-(3-Pyridylcarbonylamino)-2-phenylbenzoyl]methionine Hydrochloride], the inhibition at 10 µM turned out to be 93%.

The assay is the same for the next values; noted with them: Inhibition of farnesyltransferase; compound at 1 × 10^−6 M (Table 2).
Usually % inhibition stands for the change of the read-out against control, counted positive when it falls. A lower % inhibition goes with a weak effect. Consider `CSCCC(NC(=O)c1ccc(C=Cc2cccnc2)cc1-c1ccccc1C)C(=O)NS(=O)(=O)c1ccc(C)cc1` (stereo not shown) [Example 277, {4-[2-(Pyrid-3-yl)ethenyl]-2-(2-methylphenyl)benzoyl}methionine 4-Tolylsulfonamide], for which the “% inhibition at 1 × 10^−6 M” value stood at 98%.

Consider `CSCC[C@H](NC(=O)c1ccc(CN(C(=O)c2ccccc2)c2cccnc2)cc1-c1ccccc1C)C(=O)O` [Example 569, N-[4-N-Benzoyl-N-pyrid-3-ylaminomethyl-2-(2-methylphenyl)benzoyl]methionine], for which the “% inhibition at 1 × 10^−6 M” value is on record as 91%.

Take `CSCC[C@H](NC(=O)c1ccc(COc2cccnc2)cc1-c1ccccc1)C(=O)OCc1oc(=O)oc1C` [Example 326, [4-(3-Pyridyloxymethyl)-2-phenylbenzoyl]methionine O-Dimethylvinylene Carbonate Ester]: the “% inhibition at 1 × 10^−6 M” value is given as 91%.

In the case of `COc1cccc(-c2cc(COc3cccnc3)ccc2C(=O)N[C@@H](CCSC)C(=O)O)c1` [Example 208], the “% inhibition at 1 × 10^−6 M” value turned out to be 98%.

The assay is the same for the next values; noted with them: Inhibition of farnesyltransferase; compound at 1 × 10^−6 M (Table 2); read-out: % inhibition at 1 × 10^−6 M.
Take `CSCC[C@H](NC(=O)c1ccc(CCc2cccnc2)cc1-c1ccccc1)C(=O)O` [Example 213, {4-[2-(Pyrid-3-yl)ethyl]-2-phenylbenzoyl}methionine Sodium Salt]: the inhibition at 1 µM was determined as 98%.

In the case of `CSCC[C@H](NC(=O)c1ccc(COc2cccnc2)cc1-c1cccc(C)c1)C(=O)O` [Example 205, [4-(3-Pyridyloxymethyl)-2-(3-methylphenyl)benzoyl]methionine], the inhibition at 1 µM was found to be 98%.

Consider `CSCC[C@H](NC(=O)c1ccc(COc2cccnc2)cc1-c1ccccc1C)C(=O)O` [Example 204, [4-(3-Pyridyloxymethyl)-2-(2-methylphenyl)benzoyl]methionine], for which the inhibition at 1 µM turned out to be 98%.

As to `COc1ccncc1NCc1ccc(C(=O)N[C@@H](CCSC)C(=O)O)c(-c2ccccc2)c1` [Example 281, [4-(4-Methoxypyrid-3-ylaminomethyl)-2-phenylbenzoyl]methionine Sodium Salt], the inhibition at 1 µM is 98%.

Consider `CSCC[C@H](NC(=O)c1ccc(CS(=O)(=O)c2cccnc2)cc1-c1ccccc1)C(=O)O` [Example 233, [4-(3-Pyridylsulfonylmethyl)-2-phenylbenzoyl]methionine], for which the inhibition at 1 µM came to 65%.

Take `COCC[C@H](NC(=O)c1ccc(COc2cccnc2)cc1-c1ccccc1)C(=O)O` [Example 245]: the inhibition at 1 µM was determined as 50%.

In the case of `COC(=O)[C@H](CCSC)NC(=O)c1ccc(COc2cccnc2)cc1-c1ccccc1` [Example 234, [4-(3-Pyridyloxymethyl)-2-phenylbenzoyl]methionine Methyl Ester], the inhibition at 1 µM was determined as 4%.

As to `CSCC[C@H](NC(=O)c1ccc(NCc2cccnc2)cc1-c1ccccc1)C(=O)OCCC(C)C` [Example 193, [4-(3-Pyridylmethylamino)-2-phenylbenzoyl]methionine Isoamyl Ester], the inhibition at 1 µM stood at 4%.

As for `COc1ccc(-c2cc(COc3cccnc3)ccc2C(=O)N[C@@H](CCSC)C(=O)O)cc1` [Example 209, [4-(3-Pyridyloxymethyl)-2-(4-methoxyphenyl)benzoyl]methionine], the inhibition at 1 µM came to 74%.

Regarding `CSCC[C@H](NC(=O)c1ccc(CSc2cccnc2)cc1-c1ccccc1)C(=O)O` [Example 237, [4-(3-Pyridylthiomethyl)-2-phenylbenzoyl]methionine], the inhibition at 1 µM is 98%.

In the case of `NC(=O)CC[C@H](NC(=O)c1ccc(COc2cccnc2)cc1-c1ccccc1)C(=O)O` [Example 316, (S)-2-N-[4-(3-Pyridyloxymethyl)-2-phenylbenzoyl]amino-4-(aminocarbonyl)butanoic Acid], the inhibition at 1 µM was 63%.

`CCc1nc(NC(=O)c2ccc(COc3cccnc3)cc2-c2ccccc2)sc1C(=O)O` [Example 228]: the inhibition at 1 µM amounted to 39%.

Regarding `CCCCc1cc(C(=O)N[C@@H](CCSC)C(=O)O)c(-c2ccccc2C)cc1COc1cccnc1` [Example 319, [4-(3-Pyridyloxymethyl)-2-(2-methylphenyl)-5-butylbenzoyl]methionine], the inhibition at 1 µM came to 98%.

Staying with this assay, now noted: Inhibition of farnesyltransferase; compound at 1 × 10^−7 M (Table 3); read-out: % inhibition at 1 × 10^−7 M.
For the compound `CSCC[C@H](NC(=O)c1ccc(/C=C/c2cnccc2C(O)C2CCCCC2)cc1-c1ccccc1C)C(=O)O` (stereo partly shown) [Example 486, N-[4-(2-(4-(1-Cyclohexyl)hydroxmethyl)pyrid-3-ylethen-1-yl)-2-(2-methylphenyl)benzoyl]methionine Lithium Salt], the inhibition at 0.1 µM is 97%.

Regarding `CSCCC(OC(=O)c1ccc(/C=C/c2cccnc2)cc1-c1ccccc1C)C(=O)O` (stereo not shown) [Example 814, 2-[4-(2-Pyrid-3-ylethen-1-yl)-2-(2-methylphenyl)benzoyl]oxy-4-methylthiobutanoic Acid], the inhibition at 0.1 µM came out at 81%.

With `CSCC[C@H](NC(=O)c1ccc(/C=C/c2cnccc2C(O)c2ccccc2)cc1-c1ccccc1C)C(=O)O` (stereo partly drawn) [Example 484, N-[4-(2-(4-α-Hydroxybenzyl)pyrid-3-ylethen-1-yl)-2-(2-methylphenyl)benzoyl]methionine Lithium Salt], the inhibition at 0.1 µM is 97%.

Still in this assay, the particulars now being: Inhibition of farnesyltransferase; compound at 1 × 10^−8 M (Table 4); read-out: % inhibition at 1 × 10^−8 M.
In the case of `CSCC[C@H](NC(=O)c1ccc(COc2cccnc2)cc1-c1ccc(F)cc1Cl)C(=O)O` [Example 871, N-[4-(Pyrid-3-yloxymethyl)-2-(2-chloro-4-fluorophenyl)benzoyl]methionine], the inhibition at 0.01 µM worked out at 94%.

Consider `CSCC[C@H](NC(=O)c1ccc(COc2cccnc2)cc1-c1ccccc1)C(=O)NS(=O)(=O)N1CCN(C)CC1` [Example 401, [4-(3-Pyridyloxymethyl)-2-phenylbenzoyl]methionine 4-Methylpiperazinesulfonimide], for which the inhibition at 0.01 µM came out at 66%.

On to `CSCC[C@H](NC(=O)c1ccc(CN(CC2CCCCC2)c2cccnc2)cc1-c1ccccc1C)C(=O)O` [Example 408], for which the inhibition at 0.01 µM is > 95%.

As for `CSCC[C@@H](NC(=O)c1ccc(CNc2cccnc2)cc1-c1ccccc1C)C(=O)O` (stereo in doubt) [Example 400, [4-(3-Pyridylaminomethyl)-2-(2-methylphenyl)benzoyl]methionine], the inhibition at 0.01 µM was found to be 98%.

For `CSCC[C@H](NC(=O)c1cc(CCc2ccccc2)c(COc2cccnc2)cc1-c1ccccc1C)C(=O)O` [Example 922, N-[5-(2-Phenylethyl)-4-(pyrid-3-yloxymethyl)-2-(2-methylphenyl)benzoyl]methionine], the inhibition at 0.01 µM was 96%.

Take `CSCC[C@H](NC(=O)c1ccc(NCc2c[nH]cn2)cc1-c1ccccc1C)C(=O)O` [Example 384, 4-[N-(1-H-Imidazole-4-yl)methylamino-2-(2-methylphenylbenzoyl)]methionine]: the inhibition at 0.01 µM stood at 91%.

The same assay, now with this note: read-out: % inhibition at 0.01 μM.
For the compound `CSCC[C@H](NC(=O)c1ccc(/C=C(/C(=O)OC(C)(C)C)c2cccnc2)cc1-c1ccccc1C)C(=O)O` [Example 1077, N-[4-(E-2-t-Butoxycarbonyl-2-pyrid-3-ylethenyl)-2-(2-methylphenyl)benzoyl]methionine, Lithium Salt], the inhibition at 0.01 µM is 93%.

On to `CSCC[C@H](NC(=O)c1ccc(CN(Cc2cc(F)cc(F)c2)c2cccnc2)cc1-c1ccccc1C)C(=O)O` [Example 1360, N-[4-N-3,5-Difluorobenzyl-N-(3-pyridyl)aminomethyl-2-(2-methylphenyl)benzoyl]methionine Lithium Salt], for which the inhibition at 0.01 µM is 98%.

The same assay, now with this note: read-out: % inhibition at 1 × 10^−6 M.
Turning to `CSCC[C@H](NC(=O)c1cc(I)c(COc2cccnc2)cc1-c1ccccc1C)C(=O)O` [Example 347], the inhibition at 1 µM is 95%.

Still in this assay, the particulars now being: read-out: % inhibition at 1 × 10^−8 M.
As for `CSCC[C@H](NC(=O)c1ccc(/C=C/c2cnccc2C(O)(c2ccccc2)c2ccccc2)cc1-c1ccccc1C)C(=O)O` [Example 805, Lithium Salt], the inhibition at 0.01 µM came to 96%.
